We go through 16 compounds from PubChem BioAssay (NCI).

What all share (assay): growth of human tumour cells (NCI), 48 h
Experiment [1] has as its system DU-145 prostate.
Experiment [2] concerns HL-60(TB) leukemia.
For experiment [3], the system named is LOX IMVI melanoma.
Experiment [4] concerns NCI-H522 lung.
For experiment [5], the system named is RPMI-8226 leukemia.
For experiment [6], the system named is SK-MEL-28 melanoma.
For experiment [7], the system named is SNB-19 CNS.
Experiment [8] relates to SW-620 colon.
In experiment [9] the test system is TK-10 renal.
The test system of experiment [10] is UACC-62 melanoma.

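Step 1: Grow cells in 96-well plates. Step 2: Expose to compound for 48 hours at 5 concentrations. Step 3: Interpolate endpoints linearly; if unreached, use highest concentration. Here, GI50 denotes the concentration required for 50% inhibition of growth. At the TGI there is no net growth.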 A value given as a limit tells only on which side of the number the result lay.

As to `COc1cc(/C=C/C(=O)C(C(=O)/C=C/c2ccc(OC(=O)CCNC34CC5CC(CC(C5)C3)C4)c(OC)c2)C(=O)CCNC23CC4CC(CC(C4)C2)C3)ccc1OC(=O)CCNC12CC3CC(CC(C3)C1)C2` (centres undefined), the GI50 in experiment [1] was 2.21 µM; in [2] it was 1.95 µM; in experiment [3], 1.98 µM; in experiment [4], 3.46 µM; in experiment [5], 2.12 µM; in experiment [6], 1.67 µM. The GI50 was 4.07 µM in experiment [7], 2.42 µM in [8], 3.77 µM in experiment [9] and 3.37 µM in experiment [10]. The TGI in [1] amounted to 5.02 µM; in [2], 4.36 µM; in experiment [3], 3.94 µM; in experiment [4], 15.2 µM; in [5], 5.02 µM; in experiment [6], 4.28 µM. Besides, the TGI in experiment [7] came out at 15.9 µM; in experiment [8] it was 6.48 µM; in experiment [9], 18.7 µM; in experiment [10], 13.3 µM.
Consider `CNC(C)[C@H]1CCC2C3CC=C4C(=O)[C@@H](NC(=O)C=C(C)C)CC[C@]4(C)C3CC[C@@]21C` (some centres undefined), for which the GI50 is 4.53 µM in experiment [1]; 1.83 µM in experiment [2]; 1.35 µM in experiment [3]; 2.27 µM in experiment [4]; 1.13 µM in experiment [5]; 1.69 µM in experiment [6]. Also, the GI50 in experiment [7] is 5.26 µM; in experiment [8], 1.7 µM; in [9] it was 2.89 µM; in experiment [10], 1.84 µM. For the same compound, the TGI in experiment [1] is 16.9 µM; in experiment [2] it was 4.75 µM; in experiment [3] it was 2.98 µM; in [4], 7.55 µM; in [5], 5.27 µM; in experiment [6], 3.3 µM. For the same compound, the TGI in experiment [7] is 17.4 µM; in [8] it was 4.03 µM; in experiment [9], 10.4 µM; in experiment [10] it was 3.54 µM.
Regarding `COc1cc(/C=C/C(=O)Oc2ccccc2)ccc1C(=O)O/C=C/c1ccccc1`, the TGI in [1], in experiment [2], in experiment [3], in [4], in experiment [5] and in experiment [6] was over 100 µM in each case. The TGI in experiment [7], in [8], in experiment [9] and in experiment [10] was over 100 µM in each case.
In the case of `C=C(C)[C@@H]1CC[C@]2(C)[C@H](CC[C@@H]3[C@@H]([C@@](C)(O)CCC=C(C)C)CC[C@]32C)[C@@]1(C)CCC(=O)O`, the GI50 in experiment [1] is 16.7 µM; in experiment [2], 20.6 µM; in [3], 17.9 µM; in [4], 20.3 µM; in experiment [5], 12.2 µM; in experiment [6] it was 16.3 µM. For the same compound, the GI50 is 18.8 µM in [7], 28.5 µM in experiment [8], 40.6 µM in experiment [9] and 13.9 µM in experiment [10]. Besides, the TGI was determined as 32.4 µM in [1]; 54.5 µM in [2]; 31.8 µM in [3]; 63.5 µM in experiment [4]; 38.2 µM in [5]; 30.3 µM in experiment [6]. Further, the TGI in [7] was 34.9 µM; in [8] it was over 100 µM; in experiment [9], over 100 µM; in experiment [10], 29.5 µM.
For the compound `Oc1ccc(N=Nc2nccs2)c(O)c1`, the GI50 in experiment [1] was 5.23 µM; in [2], 3.41 µM; in [3], 3.28 µM; in experiment [4], 3.5 µM; in experiment [5], 1.62 µM; in experiment [6] it was 10.4 µM. Also, the GI50 in experiment [7] is 11.5 µM; in experiment [8] it was 5 µM; in [9] it was 14 µM; in experiment [10], 4.6 µM. In addition, the TGI in [1] was 17.1 µM; in experiment [2], over 100 µM; in experiment [3], 18.7 µM; in experiment [4] it was 13.6 µM; in [5], 4.91 µM; in [6], 30.7 µM. In addition, the TGI came out at 53.1 µM in experiment [7], 22.3 µM in experiment [8], 59.3 µM in [9] and 17.6 µM in [10].
Take `CN1C(NNC(=O)c2cccnc2)=NS(=O)(=O)c2cc(Cl)ccc21`: the GI50 in experiment [1], in experiment [2], in experiment [3], in experiment [4], in experiment [5] and in experiment [6] was over 100 µM each time. The GI50 in experiment [7], in experiment [8], in [9] and in experiment [10] was over 100 µM in each case. Further, the TGI in experiment [1], in experiment [2], in [3], in experiment [4], in [5] and in experiment [6] was over 100 µM in each case. Moreover, the TGI in [7], in [8], in experiment [9] and in experiment [10] was over 100 µM throughout.
`Oc1ccc(Oc2cnc3ccccc3n2)cc1`: the GI50 was over 100 µM in [1]; 26.3 µM in experiment [2]; over 100 µM in experiment [3]; over 100 µM in experiment [4]; over 100 µM in experiment [5]; over 100 µM in experiment [6]. Also, the GI50 in [7], in experiment [8], in [9] and in experiment [10] was over 100 µM each time. The TGI in experiment [1], in [2], in experiment [3], in [4], in experiment [5] and in experiment [6] was over 100 µM in each case. Moreover, the TGI in [7], in [8], in experiment [9] and in [10] was over 100 µM each time.
Turning to `O=C1c2ccccc2C(=O)c2c(NCCN=Cc3ccccc3O)cccc21`, the GI50 in experiment [1] was 2.22 µM; in experiment [2], 0.235 µM; in experiment [3], 3.89 µM; in [4] it was 6.94 µM; in [5], 0.714 µM; in experiment [6] it was 3.21 µM. Moreover, the GI50 is 4.31 µM in experiment [7], 2.14 µM in experiment [8], 1.99 µM in experiment [9] and 5.59 µM in experiment [10]. The TGI is 7.66 µM in experiment [1]; 3.89 µM in [2]; 9.63 µM in experiment [3]; over 25.6 µM in [4]; 2.62 µM in [5]; 10.4 µM in experiment [6]. Also, the TGI is over 54.5 µM in experiment [7], 7.07 µM in experiment [8] and 6.17 µM in experiment [9].
For `Nc1c(C(=O)Nc2ccccc2Cl)sc2nc3c(cc12)C(=O)CCC3`, the GI50 in experiment [1] is 10.3 µM; in experiment [2], 3.72 µM; in [3] it was 51.9 µM; in experiment [4], 0.777 µM; in experiment [5], over 100 µM; in [6], 22.4 µM. Besides, the GI50 in experiment [7] is 12.5 µM; in experiment [8], 0.556 µM; in experiment [9], 78.6 µM; in [10], 0.789 µM. For the same compound, the TGI in experiment [1], in experiment [2], in experiment [3], in experiment [4], in experiment [5] and in experiment [6] was over 100 µM throughout. The TGI in experiment [7], in experiment [8], in experiment [9] and in experiment [10] was over 100 µM throughout.
For `Cc1noc2c1-c1ccccc1C(c1ccc(Cl)cc1)=N[C@H]2CC(N)=O`, the GI50 in experiment [1] is 79.3 µM; in experiment [2], 0.398 µM; in experiment [3], 2.3 µM; in [4], 8.2 µM; in experiment [5], 0.362 µM; in experiment [6], 7.38 µM. For the same compound, the GI50 in [7] is 11 µM; in experiment [8], 26.1 µM; in [9], 0.486 µM; in [10], 0.462 µM. The TGI is over 100 µM in [1]; over 33.8 µM in [2]; over 100 µM in experiment [3]; over 100 µM in [4]; 10.7 µM in experiment [5]; over 100 µM in experiment [6]. Further, the TGI in [7] was over 100 µM; in experiment [8], over 100 µM; in experiment [9] it was over 100 µM; in [10] it was over 58.9 µM.
With `O=C(Nc1ccc(Cl)cc1)Nc1nccs1`, the GI50 in experiment [1] is 3.82 µM; in experiment [2], 2.3 µM; in experiment [3] it was 0.786 µM; in experiment [4], 1.92 µM; in experiment [5], 2.63 µM; in [6], 13.8 µM. In addition, the GI50 in experiment [7] was 3.67 µM; in experiment [8], 0.4 µM; in experiment [9], 10.2 µM; in [10], 0.756 µM. The TGI in experiment [1] was 71.9 µM; in [2], 10.2 µM; in experiment [3] it was over 100 µM; in [4], 14.4 µM; in experiment [5] it was 16.6 µM; in [6], over 100 µM. The TGI in experiment [7] was over 100 µM; in experiment [8], over 100 µM; in [9], 93.1 µM; in experiment [10], 57.9 µM.
Take `CC(Cl)CN1c2ccccc2Sc2ccc(Cl)cc21` (centres undefined): the TGI in experiment [1], in experiment [2], in [3], in experiment [4], in [5] and in [6] was over 10 µM each time. In addition, the TGI in experiment [7], in experiment [8], in experiment [9] and in experiment [10] was over 10 µM each time.
As to `CCOC(=O)c1sc(NC(=O)COc2cccc(/C=C3\CCc4cc(OC)ccc4C3=O)c2)nc1C`, the GI50 in [1] is 1.86 µM; in experiment [2], 1.94 µM; in experiment [3] it was 3.87 µM; in [4] it was 3.6 µM; in experiment [5], 1.2 µM; in [6] it was 18.2 µM. In addition, the GI50 was 2.78 µM in [7], 3.79 µM in [8], 21.7 µM in experiment [9] and 5.43 µM in [10]. Further, the TGI was 3.81 µM in experiment [1]; 4.92 µM in experiment [2]; 15.7 µM in [3]; over 100 µM in experiment [4]; 3.38 µM in experiment [5]; over 100 µM in experiment [6]. Further, the TGI in experiment [7] was over 100 µM; in experiment [8], 13.3 µM; in experiment [9], over 100 µM; in [10] it was over 100 µM.
As to `CC1=NC(C)(COC(=O)C2(C)NC(C)(CO)CO2)COC1=O` (centres undefined), the TGI in [1], in [2], in [3], in [4], in experiment [5] and in experiment [6] was over 100 µM each time. In addition, the TGI in [7], in experiment [8], in experiment [9] and in experiment [10] was over 100 µM each time.
Consider `NCCCOc1cc2ccccc2cc1C(=O)NCCCOc1cc2ccccc2cc1C(=O)Nc1ccc(Cl)cc1O`, for which the GI50 in [1] was 0.72 µM; in experiment [2] it was 0.512 µM; in [3] it was 0.436 µM; in [4], 0.929 µM; in experiment [5], 0.578 µM; in experiment [6] it was 0.289 µM. Moreover, the GI50 in experiment [7] is 0.72 µM; in [8], 0.189 µM; in experiment [9] it was 0.583 µM; in experiment [10] it was 1.58 µM. Besides, the TGI in experiment [1] worked out at 2.17 µM; in experiment [2], 2.2 µM; in experiment [3], 1.78 µM; in experiment [4] it was 2.89 µM; in experiment [5], 7.09 µM; in [6], 0.728 µM. For the same compound, the TGI is 2.88 µM in experiment [7], 0.381 µM in experiment [8], 1.26 µM in [9] and 3.53 µM in [10].
As to `NC(N)=N/N=C(\N=Nc1ccccc1)c1ccc(Cl)cc1`, the GI50 was 7.38 µM in experiment [1]; 1.88 µM in [2]; 1.18 µM in experiment [3]; 3.35 µM in experiment [4]; 3.21 µM in experiment [5]; 1.98 µM in [6]. Further, the GI50 in experiment [7] is 12 µM; in experiment [8], 1.41 µM; in experiment [9] it was 3.18 µM; in experiment [10], 1.13 µM. Moreover, the TGI in experiment [1] worked out at 21.3 µM; in [2] it was 3.85 µM; in [3], 3.54 µM; in experiment [4] it was 13.8 µM; in experiment [5], 12 µM; in [6] it was 4.59 µM. The TGI in [7] turned out to be 35.5 µM; in experiment [8], 3.54 µM; in [9] it was 12 µM; in experiment [10] it was 4.35 µM.
